The values that follow come from patent US7169931B2, “Cyclic compounds exhibiting thrombopoietin receptor agonism” (Shionogi & Co., Ltd., priority 2001, dated 2007).

The term EC50 denotes the concentration that produces a half-maximal response.

In the test the target is T1, human TPO receptor (Homo sapiens, UniProt P40238).
T1 construct: expressed in transfected cells; host or cells: BaF-B03 (murine IL-3 dependent cell line)
T1 sequence (P40238 26-635): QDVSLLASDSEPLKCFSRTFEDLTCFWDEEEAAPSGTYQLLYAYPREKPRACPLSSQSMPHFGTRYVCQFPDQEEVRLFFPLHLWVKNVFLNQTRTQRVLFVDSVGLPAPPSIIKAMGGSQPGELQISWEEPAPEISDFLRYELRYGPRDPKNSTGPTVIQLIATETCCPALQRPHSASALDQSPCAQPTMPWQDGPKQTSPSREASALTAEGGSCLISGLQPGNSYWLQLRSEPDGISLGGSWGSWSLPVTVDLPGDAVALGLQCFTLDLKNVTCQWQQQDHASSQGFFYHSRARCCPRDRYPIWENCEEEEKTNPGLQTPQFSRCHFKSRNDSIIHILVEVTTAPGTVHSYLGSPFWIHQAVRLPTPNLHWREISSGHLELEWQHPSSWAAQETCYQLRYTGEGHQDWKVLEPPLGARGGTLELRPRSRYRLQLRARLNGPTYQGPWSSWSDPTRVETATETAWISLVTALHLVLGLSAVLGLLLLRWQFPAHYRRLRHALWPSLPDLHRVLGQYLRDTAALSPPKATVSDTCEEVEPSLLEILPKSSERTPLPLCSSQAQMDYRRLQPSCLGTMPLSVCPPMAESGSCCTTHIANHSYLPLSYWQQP
As to the kind of experiment: Thrombopoietic activity: proliferation of TPO dependent BaF/hTPOR cells (WST-1). Type of test: cell-based. Particulars: BaF/hTPOR cell line (BaF-B03 with human TPO receptor), without IL-3; 20 hours incubation + 4 hours WST-1, absorbance 450 nm; ED50 = half concentration of the concentration showing maximum thrombopoietic activity. The procedure:
BAF/hTPOR cells were maintained in RPMI medium and WEHI-3B conditioned medium as a source of murine interleukin-3 (IL-3). These cells were washed and resuspended in RPMI medium without a source of murine IL-3 and seeded into each well of 96-well microtiter plates at a density of 5×10^4 cells per well in the absence or presence of various concentration of hTPO or the present compound. After incubation at 37° C. for 20 hours in the 5% CO2 incubator, 10% WST-1 reagent (Takara Biomedicals, Japan) was added to each wells and the cells were further incubated for 4 hours. The absorbance at 450 nm was measured.
As to `O=C(Nc1nc(-c2ccc(Cl)c(Cl)c2)cs1)c1ccc2c(c1)CCC(C(=O)O)C2` (stereo not shown) [Compound A-1], the EC50 came out at 40 nM. As for `O=C(O)c1ccc2c(c1)CCC(C(=O)Nc1nc(-c3ccc(Cl)c(Cl)c3)cs1)C2` (stereo not shown) [Compound A-2], the EC50 was found to be 376 nM.

For the compound `O=C(Nc1nc(-c2ccc(Cl)c(Cl)c2)cs1)c1ccc2c(c1)CC(C(=O)O)CC2` (stereo not shown) [Compound A-3], the EC50 worked out at 965 nM. For the compound `O=C(Nc1nc(-c2ccc(Cl)c(Cl)c2)cs1)c1ccc2c(c1)CCC(F)(C(=O)O)C2` (stereo not shown) [Compound A-4], the EC50 worked out at 148 nM. Turning to `COC(=O)C1(F)CCc2cc(C(=O)Nc3nc(-c4ccc(Cl)c(Cl)c4)cs3)ccc2C1` (stereo not shown) [Compound A-5], the EC50 was 165 nM. In the case of `O=C(Nc1nc(-c2ccc(Cl)c(Cl)c2)cs1)c1ccc2c(c1)C(=O)CC(C(=O)O)C2` (stereo not shown) [Compound A-6], the EC50 is 210 nM.

With `COC(=O)C1CC(=O)c2cc(C(=O)Nc3nc(-c4ccc(Cl)c(Cl)c4)cs3)ccc2C1` (stereo not shown) [Compound A-7], the EC50 stood at 250 nM. As for `COC(=O)[C@@H]1Cc2ccc(C(=O)Nc3nc(-c4ccc(Cl)c(Cl)c4)cs3)cc2[C@H](O)C1` [Compound A-8], the half-maximal effective concentration (EC50) came to 2280 nM. In the case of `O=C(Nc1nc(-c2ccc(Cl)c(Cl)c2)cs1)c1ccc2c(c1)C(F)CC(C(=O)O)C2` (stereo not shown) [Compound A-9], the EC50 amounted to 306 nM. With `COC(=O)C1Cc2ccc(C(=O)Nc3nc(-c4ccc(Cl)c(Cl)c4)cs3)cc2C(=O)C1F` (stereo not shown) [Compound A-11] the figure was 552 nM.

On to `COC(=O)CC1Cc2ccc(C(=O)Nc3nc(-c4ccc(Cl)c(Cl)c4)cs3)cc2C1=O` (stereo not shown) [Compound A-13], for which the concentration for a half-maximal effect (EC50) turned out to be 270 nM. Consider `O=C(O)CC1Cc2ccc(C(=O)Nc3nc(-c4ccc(Cl)c(Cl)c4)cs3)cc2C1=O` (stereo not shown) [Compound A-14], for which the EC50 is 230 nM. With `COC(=O)CC1Cc2ccc(C(=O)Nc3nc(-c4ccc(Cl)c(Cl)c4)cs3)cc2C1` (stereo not shown) [Compound A-15] the figure was 240 nM. In the case of `O=C(O)CC1Cc2ccc(C(=O)Nc3nc(-c4ccc(Cl)c(Cl)c4)cs3)cc2C1` (stereo not shown) [Compound A-16], the EC50 amounted to 230 nM. With `O=C(O)c1ccc2cc(C(=O)Nc3nc(-c4ccc(Cl)c(Cl)c4)cs3)ccc2c1` [Compound A-17], the EC50 was 23 nM.

As for `COC(=O)c1ccc2cc(C(=O)Nc3nc(-c4ccc(Cl)c(Cl)c4)cs3)ccc2c1` [Compound A-18], the EC50 was 43 nM.

Consider `COC(=O)c1ccc2cc(C(=O)Nc3nc(-c4ccc(Cl)c(Cl)c4)cs3)ccc2n1` [Compound A-22], for which the EC50 was 190 nM. With `O=C(Nc1nc(-c2cccc(C(F)(F)F)c2F)cs1)c1ccc2c(c1)CCC(C(=O)O)C2` (stereo not shown) [Compound B-1] the figure was 69 nM; with `O=C(Nc1nc(-c2ccc3c(c2)CCCC3)cs1)c1ccc2c(c1)CCC(C(=O)O)C2` (stereo not shown) [Compound B-2], 214 nM. Consider `CCCCc1cccc(-c2csc(NC(=O)c3ccc4c(c3)CCC(C(=O)O)C4)n2)c1` (stereo not shown) [Compound B-3], for which the EC50 turned out to be 219 nM. With `O=C(Nc1nc(-c2ccc(C(F)(F)F)cc2F)cs1)c1ccc2c(c1)CCC(C(=O)O)C2` (stereo not shown) [Compound B-4], the EC50 was determined as 110 nM. For `CCCCCc1cccc(-c2csc(NC(=O)c3ccc4c(c3)CCC(C(=O)O)C4)n2)c1F` (stereo not shown) [Compound B-5], the EC50 was 56 nM.

Regarding `CCCCCc1cc(-c2csc(NC(=O)c3ccc4c(c3)CCC(C(=O)O)C4)n2)ccc1F` (stereo not shown) [Compound B-6], the EC50 stood at 66 nM. With `O=C(Nc1nc(-c2ccc(F)c(F)c2)cs1)c1ccc2c(c1)CCC(C(=O)O)C2` (stereo not shown) [Compound B-7] the figure was 280 nM; with `O=C(Nc1nc(-c2cccc(C(F)(F)F)c2)cs1)c1ccc2c(c1)CCC(C(=O)O)C2` (stereo not shown) [Compound B-8], 120 nM. As to `O=C(Nc1nc(-c2cccc(F)c2F)cs1)c1ccc2c(c1)CCC(C(=O)O)C2` (stereo not shown) [Compound B-9], the EC50 turned out to be 28.1 nM.

On to `O=C(Nc1nc(-c2ccc(Cl)c(Cl)c2)c(F)s1)c1ccc2c(c1)CCC(C(=O)O)C2` (stereo not shown) [Compound B-10], for which the EC50 was determined as 48 nM. As to `CC(C)c1cccc(-c2csc(NC(=O)c3ccc4c(c3)CCC(C(=O)O)C4)n2)c1F` (stereo not shown) [Compound B-11], the EC50 turned out to be 66 nM.
